According to paper PMC4491177, “Co-translational capturing of nascent ribosomal proteins by their dedicated chaperones” (Nature Communications, 2015):
Ends that are not written are not given here.

Key:
[1] = system: NTAP-Rrb1; test: in vivo co-purification (TAP) with NTAP-Rrb1; assay type: binding, S. cerevisiae; conditions: CUP1 promoter, 30 min with 500 µM copper sulfate
Protocol: (§1) Cells expressing Sqt1-TAP and NTAP-Rrb1 were grown at 30 °C in 4 l yeast extract peptone dextrose (YPD) medium to an optical density (OD600) of 2. Cell extracts were obtained by glass bead lysis with a Pulverisette (Fritsch). TAPs were performed in a buffer containing 50 mM Tris-HCl (pH 7.5), 100 mM NaCl, 1.5 mM MgCl2, 5% glycerol and 0.1% NP-40 as described. The EGTA eluates were precipitated by the addition of TCA to a final concentration of 10% and, after an acetone wash, dissolved in 80 μl of 3 × SDS sample buffer. […]
(§2) lanes 3 and 4) from cells where expression of the yEGFP control protein (lanes 1 and 3) or the Rpl10(1-20)-yEGFP (lane 2) and Rpl3(1-23)-yEGFP (lane 4) fusion proteins has been induced from the CUP1 promoter for 30 min with 500 µM copper sulfate. Final EGTA eluates were analyzed by SDS-PAGE and Coomassie staining (top) or by Western blotting using anti-CBP, anti-Flag, anti-GFP, anti-Rpl10, and anti-Rpl3 antibodies (bottom). Total cell extracts (input) were analyzed by Western blotting using anti-proteinA, anti-GFP, and anti-Adh1 (loading control) antibodies. […]
(§3) Final EGTA eluates were analyzed by SDS-PAGE and Coomassie staining (top) or by Western blotting using anti-CBP, anti-Flag, anti-HA, anti-Rpl10, and anti-Rpl3 antibodies (bottom). […] Total cell extracts (input) were analyzed by Western blotting using anti-proteinA, anti-HA, and anti-Adh1 (loading control) antibodies. […]

[2] = system: yeast strain YDK11-5A; test: growth assay, yEGFP fusion expression and chaperone overexpression; assay type: cell-based, S. cerevisiae; conditions: chaperones from GAL1-10 promoter, SGal-Leu-Trp plates, 30 °C
Source text: Supplementary Figure 3 The N-terminal residues of Rpl10 and Rpl3 are sufficient and required for the interaction with Sqt1 and Rrb1, respectively. (a) The negative growth effect associated with L10-N- and L3-N-yEGFP expression is suppressed by overexpression of Sqt1 and Rrb1, respectively. The wild-type strain YDK11-5A was co-transformed with plasmids expressing yEGFP, Rpl10(1-20)-yEGFP or Rpl3(1-23)-yEGFP from the cognate RPL10 or RPL3 promoter, respectively, and empty vector or plasmids expressing Sqt1 or Rrb1 from the inducible GAL1-10 promoter. Transformants were first selected and then restreaked on SGal-Leu-Trp plates. Cells were spotted in 10-fold serial dilution steps onto SC-Leu-Trp (Glucose, Glu) and SGal-Leu-Trp (Galactose, Gal) plates, which were incubated for 3 d or 4 d at 30 °C, respectively. (b) The N-terminal residues of Rpl10 and Rpl3 are sufficient to mediate interaction with their chaperones in vivo. Tandem-affinity purification of C-terminally TAP-tagged Sqt1 (Sqt1-TAP, lanes 1 and 2) and N-terminally TAP-tagged Rrb1 (NTAP-Rrb1, […]
(1 picture or pasted object on this page, not shown here)

[3] = system: NTAP-Rrb1; test: co-translational capturing of yEGFP fusion by qRT-PCR, NTAP-Rrb1 purification; assay type: binding, S. cerevisiae; conditions: vs yEGFP control mRNA; expressed 10 min from copper-inducible promoter, then cycloheximide
Protocol: Cells expressing Sqt1-TAP, NTAP-Rrb1, Syo1-FTpA and Yar1-TAP were grown at 30 °C in 400 ml YPD medium to an optical density (OD600) of 0.8, then cycloheximide was added to a final concentration of 0.2 mg ml^−1 and the flasks were kept, with intermittent vigorous shaking, on ice for 5 min. Cells were harvested by centrifugation for 5 min at 4 °C at 4,000 r.p.m., washed once with 20 ml of ice-cold lysis buffer (100 mM NaCl, 50 mM Tris-HCl (pH 7.5), 1.5 mM MgCl2, 0.1% NP-40 and 5% glycerol) containing 1 mM PMSF and 0.2 mg ml^−1 cycloheximide (lysis buffer-PC) and resuspended in 2 ml of lysis buffer-PC. Equal volumes of the resuspended cells were transferred into two 2.2 ml Eppendorf tubes, briefly centrifuged and resuspended in 600 μl of ice-cold lysis buffer-PC. To prevent RNA degradation, 4 μl of RiboLock (40 U μl^−1; Fermentas) was added. Then glass beads, corresponding to 1/3 of the lysis buffer volume, were added and the tubes were vigorously vortexed for 10 × 30 s with 30-s intervals on ice. Cell extracts were transferred to a new tube and, to maximize the yield, 400 μl of ice-cold lysis buffer-PC was used to rinse the glass beads. […]
For RNA isolation from the TEV eluate aliquot (∼450 μl), the TEV eluate was adjusted to 10 mM EDTA (pH 8.0) and 0.5% SDS. […] RNA concentrations (A260) were determined using a NanoDrop 1000 spectrophotometer (Thermo Scientific). […]

[4] = system: Sqt1-TAP; test: co-translational capturing of yEGFP fusion by qRT-PCR, Sqt1-TAP purification; assay type: binding, S. cerevisiae; conditions: vs yEGFP control mRNA; expressed 10 min from copper-inducible promoter, then cycloheximide
Protocol: Figure 7 Chaperones are recruited to nascent ribosomal proteins. (a) The chaperone proteins were affinity purified (IgG-Sepharose pull-down) from extracts of cycloheximide-treated cells and the associated RNA was isolated from the TEV eluates. Each of the four chaperone purifications (NTAP-Rrb1, Syo1-FTpA, Sqt1-TAP, and Yar1-TAP) was assessed for their content of the four ribosomal protein (RP) mRNAs (RPL3, RPL5, RPL10 and RPS3) by real-time qRT–PCR. The data from one representative experiment are expressed as the relative enrichment of the specifically co-purified RP mRNA in each of the four chaperone purifications (see Methods section for details). For each cDNA, real-time qPCRs were performed in triplicates. A highly reproducible data set was obtained in an independent series of chaperone purifications. (b) The N-terminal residues of Rpl10 are sufficient to target Sqt1 to the nascent Rpl10(1–20)-yEGFP fusion protein. […] The Sqt1-TAP purifications were assessed for their content of the RPL3, RPL10 and yEGFP (GFP) mRNAs by real-time qRT–PCR. The data from one representative experiment are expressed as the fold enrichment relative to the RPL3 mRNA. […]

[5] = system: Sqt1-TAP; test: in vivo co-purification (TAP) with Sqt1-TAP; assay type: binding, S. cerevisiae; conditions: CUP1 promoter, 30 min with 500 µM copper sulfate
Protocol: as §1, §2, §3

[6] = system: Rpl10; test: tandem-affinity purification of Sqt1-TAP; assay type: binding, S. cerevisiae; conditions: TAP from yeast cell lysate, EGTA eluate, Coomassie
Protocol: (§4) Cells expressing Sqt1-TAP and NTAP-Rrb1 were grown at 30 °C in 4 l yeast extract peptone dextrose (YPD) medium to an optical density (OD600) of 2. Cell extracts were obtained by glass bead lysis with a Pulverisette (Fritsch). TAPs were performed in a buffer containing 50 mM Tris-HCl (pH 7.5), 100 mM NaCl, 1.5 mM MgCl2, 5% glycerol and 0.1% NP-40 as described. The EGTA eluates were precipitated by the addition of TCA to a final concentration of 10% and, after an acetone wash, dissolved in 80 μl of 3 × SDS sample buffer. Protein samples were separated on NuPAGE 4–12% Bis-Tris 12-well gels (Novex), run in 1 × MES SDS running buffer, and subsequently stained with Brilliant Blue G Colloidal Coomassie (Sigma).

[7] = system: Rpl3; test: tandem-affinity purification of NTAP-Rrb1; assay type: binding, S. cerevisiae; conditions: TAP from yeast cell lysate, EGTA eluate, Coomassie
Protocol: as §4

With “L3-N (amino acids 1–23) yEGFP (MSHRKYEAPRHGHLGFLPRKRAA; also: fused to yEGFP, end not given here; UniProt P14126 1-23, looked up, fragment)” the “in vivo co-purification with the NTAP-Rrb1 bait” value [1] was “specifically co-purified in vivo”, the “growth defect associated with expression, upon overexpression of Sqt1 or Rrb1, respectively” value [2] was “efficiently suppressed” and the “enrichment of fusion mRNA in NTAP-Rrb1 purification” value [3] was “clearly enriched compared with the yEGFP control mRNA”.

“L10-N (amino acids 1–20) yEGFP (MARRPARCYRYQKNKPYPKS; also: fused to yEGFP; UniProt P41805 1-20, looked up, fragment)” was tested, and the “enrichment of fusion mRNA in Sqt1-TAP purification” value [4] was “clearly enriched compared with the yEGFP control mRNA”, the “in vivo co-purification with the Sqt1-TAP bait” value [5] was “specifically co-purified in vivo” and the “growth defect associated with expression, upon overexpression of Sqt1 or Rrb1, respectively” value [2] was “efficiently suppressed”.

B1: Sqt1-TAP: C-terminally TAP-tagged Sqt1 (protein)
chain: MEPQEEFITTEEVEQEIVPTVEVEQDVPVDIEGENDDDDEMMNDDEEALEVDMSNNSLTYFDKHTDSVFAIGHHPNLPLVCTGGGDNLAHLWTSHSQPPKFAGTLTGYGESVISCSFTSEGGFLVTADMSGKVLVHMGQKGGAQWKLASQMQEVEEIVWLKTHPTIARTFAFGATDGSVWCYQINEQDGSLEQLMSGFVHQQDCSMGEFINTDKGENTLELVTCSLDSTIVAWNCFTGQQLFKITQAEIKGLEAPWISLSLAPETLTKGNSGVVACGSNNGLLAVINCNNGGAILHLSTVIELKPEQDELDASIESISWSSKFSLMAIGLVCGEILLYDTSAWRVRHKFVLEDSVTKLMFDNDDLFASCINGKVYQFNARTGQEKFVCVGHNMGVLDFILLHPVANTGTEQKRKVITAGDEGVSLVFEVPN
modifications: left off: TAP, C-terminal, kept
With B1 the “co-enrichment of Rpl10” value [6] was “good co-enrichment of Rpl10”.

B2: NTAP-Rrb1: N-terminally TAP-tagged Rrb1 (protein)
chain: MSKRSIEVNEEQDRVVSAKTESHSVPAIPASEEQDAPKNDLEEQLSDEFDSDGEIIEIDGDDEINDEDDLRKKQEEAETLVQKDQSEGNKEKIQELYLPHMSRPLGPDEVLEADPTVYEMLHNVNMPWPCLTLDVIPDTLGSERRNYPQSILLTTATQSSRKKENELMVLALSNLAKTLLKDDNEGEDDEEDDEDDVDPVIENENIPLRDTTNRLKVSPFAISNQEVLTATMSENGDVYIYNLAPQSKAFSTPGYQIPKSAKRPIHTVKNHGNVEGYGLDWSPLIKTGALLSGDCSGQIYFTQRHTSRWVTDKQPFTVSNNKSIEDIQWSRTESTVFATAGCDGYIRIWDTRSKKHKPAISVKASNTDVNVISWSDKIGYLLASGDDNGTWGVWDLRQFTPSNADAVQPVAQYDFHKGAITSIAFNPLDESIVAVGSEDNTVTLWDLSVEADDEEIKQQAAETKELQEIPPQLLFVHWQKEVKDVKWHKQIPGCLVSTGTDGLNVWKTISV
modifications: left off: NTAP (proteinA-TEV-CBP-Flag), N-terminal, kept
For B2, the “co-purification of Rpl3” value [7] was “robust co-purification of Rpl3”.
